Results from patent US12252486B2, “Solid state forms” (Amgen Inc., priority 2019, dated 2025).

Experiments:
[1] = solubility assessment during lead optimization; assay type: physicochemical
Text: Within the pharmaceutical research and development field, the investigation of a suitable solid-state form represents a crucial step. Investigating a solid-state form comprises several decisions, mainly the investigation of an anhydrous, salt or co-crystal form and the investigation of a polymorph of the respective anhydrous, salt or co-crystal. During a lead optimization program, several properties of research compounds are optimized, typically leading to one or a few candidates that continue into exploratory development programs. Typically, in the assessment and optimization of physical chemical parameters during lead optimization, the main focus is on solubility. […] Beyond the optimization of solubility, further physical chemical parameters, such as (1) melting point, (2) thermal behavior, (3) hygroscopicity, (4) crystal habit, (5) polymorphic behavior or physical stability, (6) impurity profile, and (7) chemical stability of the anhydrous or salt form, must be borne in mind when investigating the salt. The melting point of a drug, either as a free base, acid or salt form, should be higher than a certain threshold to allow processing steps such as drying or tableting. The assessment of thermal behavior, which is typically done by thermogravimetry (TGA) and differential scanning calorimetry (DSC), also includes solid-solid phase transitions. […]

[2] = tested on: KRAS^G12C tumors; conditions: preclinical analyses, combination; cited from earlier work
[3] = tested on: KRAS^G12C tumors; conditions: immune-competent mice; alone as well as in combination with immune-checkpoint inhibitors; cited from earlier work
[4] = clinical trials, first dosing cohorts; cited from earlier work

SMILES | solubility [1] | effect on anti-tumor efficacy of chemotherapy and targeted agents [2] | cures [3] | anti-tumor activity [4]
C=CC(=O)N1CCN(c2nc(=O)n(-c3c(C)ccnc3C(C)C)c3nc(-c4c(O)cccc4F)c(F)cc23)[C@@H](C)C1 [Compound 1, 6-fluoro-7-(2-fluoro-6-hydroxyphenyl)-1-(4-methyl-2-(2-propanyl)-3-pyridinyl)-4-((2S)-2-methyl-4-(2-propenoyl)-1-piperazinyl)pyrido[2,3-d]pyrimidin-2(1H)-one] | good solubility features |  |  | 
C=CC(=O)N1CCN(c2nc(=O)n(-c3c(C)ccnc3C(C)C)c3nc(-c4c(O)cccc4F)c(F)cc23)[C@@H](C)C1 [AMG 510] |  | improved the anti-tumor efficacy of chemotherapy and targeted agents | durable cures | demonstrated anti-tumor activity
